Paper PMC12337661, “PIEZO1 mechanical insensitivity in generalized lymphatic dysplasia with the potential for pharmacological rescue” (iScience, 2025)
In brackets after ≈: the same amount, converted by molar mass. Each block holds one molecule with its values, some of them ahead of it.

How the values were obtained:
[1] = system: T-REx-293 cells, empty vector (vector control); test: Intracellular Ca2+ measurement (fura-2), T-REx-293 cells transiently transfected with empty vector; format: cell-based; conditions: 1 μM
Method: HEK 293 cell line was transiently transfected at 90% confluence using Lipofectamine 2000 (Invitrogen) in OptiMEM (Gibco). Briefly: 500 ng endotoxin-free DNA per 100μL OptiMEM was prepared alongside 3μL Lipofectamine 2000 per 100μL OptiMEM (Gibco). Both were incubated for 5 min and then mixed, and then incubated at room temperature (21°C–24°C) for 20–30 min. Finally, the transfection mix was gently added dropwise to the cells and the cells were placed in a humidified incubator at 37°C supplied with 5% CO2 for 5 h. Medium was replaced afterward, and cells were used for experimentation 48 h after transfection.
(§1) For intracellular Ca^2+ assays, cells were plated at 80–90% confluence in 96-well plates 24 h prior to recordings (6–8 × 10^4 cells per well). […] Cells were washed with SBS and incubated at room temperature for 20 min prior to recordings. Equal volumes of 2x concentrated compounds were injected to test for acute channel activation. Pre-incubation with compounds occurred during the 20 min prior to recordings. To expose cell membranes to hypo-osmolality, an equal volume of hypotonic SBS (containing only 35 mM NaCl) was injected onto the cells. Measurements were made on a fluorescence plate reader (Flexstation III, Molecular Devices) at room temperature (21 ± 2°C). Fura-2 was excited at 340 nm and 380 nm and emitted light collected at 510 nm, with measurements shown as the change in fluorescence (F) ratio (ΔF340/380).
KC41 (Dooku1) was prepared as described.[28] All purchased chemicals and solvents were used without further purification unless otherwise stated. All compounds were at least 95% pure by 1H NMR. 1H Nuclear Magnetic Resonance spectra were recorded at 500 MHz using a Bruker DRX 500 instrument or at 400 MHz using a Bruker DPX 400. 1H spectra are referenced based on the residual proton in the solvent (e.g., the CHCl3, 0.01% in 99.99% CDCl3). Coupling constants (J) are reported to the nearest 0.1 Hz. 13C NMR spectra were recorded at 125 MHz on 500 MHz spectrometers or at 100 MHz on 400 MHz spectrometers. LC-MS was performed on a Bruker Daltronics running a gradient of increasing acetonitrile (5–95%) in H2O both containing 0.1% formic acid at 1 mL.min^−1, on a short path C18 reverse phase column, detecting compounds with both a diode array detector and a Bruker mass spectrum analyser. HRMS was performed on a Bruker Daltonics micrOTOF using positive electrospray ionisation (ES+). Automated column chromatograph was carried out using a Biotage Isolera Four, using either Sfär Silica D or KP-Silica cartridges. HPLC was performed on an Agilent 1290 Infinity Series equipped with a UV detector and Hyperprep C18 reverse phase column. Key to NMR abbreviations: s (singlet), br s (broad singlet) d (doublet), dd (doublet of doublets), ddd (doublet of doublets of doublets), t (triplet), dt (doublet of triples), q (quartet), m (multiplet), ap. t (apparent triplet). For experiments, Yoda1 and its analogues were prepared as 10 mM stock solutions in 100% dimethyl sulfoxide (DMSO) before serial dilution in DMSO and final dilution in aqueous solution. Cells were exposed to 0.1% DMSO for all concentrations of the compounds from 0 to 10 μM.

G1994D mPIEZO1 = biological target: T1, G1994D mPIEZO1 (Mus musculus, UniProt E2JF22, G1994D); test: Long substance exposure (20 min exposure) Ca2+ assay; format: cell-based
T1 construct: expressed in transfected cells
Description: Supplement mmc2.xlsx, sheet "Figure 5e" | column: Mean normalise fluorescence

[2] = parameters: method as in PMID 36457143, PMID 38716967, PMID 39402010; conditions: cited from earlier work
WT mPIEZO1 = biological target: T2, WT mPIEZO1 (Mus musculus, UniProt E2JF22); test: Long substance exposure and hypo-osmolality protocol Ca2+ assay; format: cell-based; conditions: 10 μM, 20-min exposure, hypotonic assay
T2 construct: expressed in transfected cells
Method: as §1
SI Figure S5: Hypo-osm ol al it y test in the Ca2+ assay, referred to in the main paper
(a) Typical 96-well plate mean ± s.e.m. data for changes in intracellular Ca2+ evoked by hypotonic (35 mM NaCl) or normotonic (135 mM NaCl) medium for WT- or Empty vector-transfected cells in increasing concentrations of Yoda1 as indicated and colour -coded on t he right (representative of n = 3-6 independent experiments). […]

[3] = Aqueous (kinetic) solubility; format: physicochemical; conditions: pH 7.4, aqueous buffer, kinetic from dmso stock; physiological pH in PBS
Method: (§2) Aqueous solubility, mouse microsomal stability and mouse plasma protein binding assays were performed by Malvern Panalytical (UK) as previously described.[29]

[4] = Mouse plasma protein binding; format: in vitro ADME
Method: as §2

T1 sequence (E2JF22 whole entry G1994D): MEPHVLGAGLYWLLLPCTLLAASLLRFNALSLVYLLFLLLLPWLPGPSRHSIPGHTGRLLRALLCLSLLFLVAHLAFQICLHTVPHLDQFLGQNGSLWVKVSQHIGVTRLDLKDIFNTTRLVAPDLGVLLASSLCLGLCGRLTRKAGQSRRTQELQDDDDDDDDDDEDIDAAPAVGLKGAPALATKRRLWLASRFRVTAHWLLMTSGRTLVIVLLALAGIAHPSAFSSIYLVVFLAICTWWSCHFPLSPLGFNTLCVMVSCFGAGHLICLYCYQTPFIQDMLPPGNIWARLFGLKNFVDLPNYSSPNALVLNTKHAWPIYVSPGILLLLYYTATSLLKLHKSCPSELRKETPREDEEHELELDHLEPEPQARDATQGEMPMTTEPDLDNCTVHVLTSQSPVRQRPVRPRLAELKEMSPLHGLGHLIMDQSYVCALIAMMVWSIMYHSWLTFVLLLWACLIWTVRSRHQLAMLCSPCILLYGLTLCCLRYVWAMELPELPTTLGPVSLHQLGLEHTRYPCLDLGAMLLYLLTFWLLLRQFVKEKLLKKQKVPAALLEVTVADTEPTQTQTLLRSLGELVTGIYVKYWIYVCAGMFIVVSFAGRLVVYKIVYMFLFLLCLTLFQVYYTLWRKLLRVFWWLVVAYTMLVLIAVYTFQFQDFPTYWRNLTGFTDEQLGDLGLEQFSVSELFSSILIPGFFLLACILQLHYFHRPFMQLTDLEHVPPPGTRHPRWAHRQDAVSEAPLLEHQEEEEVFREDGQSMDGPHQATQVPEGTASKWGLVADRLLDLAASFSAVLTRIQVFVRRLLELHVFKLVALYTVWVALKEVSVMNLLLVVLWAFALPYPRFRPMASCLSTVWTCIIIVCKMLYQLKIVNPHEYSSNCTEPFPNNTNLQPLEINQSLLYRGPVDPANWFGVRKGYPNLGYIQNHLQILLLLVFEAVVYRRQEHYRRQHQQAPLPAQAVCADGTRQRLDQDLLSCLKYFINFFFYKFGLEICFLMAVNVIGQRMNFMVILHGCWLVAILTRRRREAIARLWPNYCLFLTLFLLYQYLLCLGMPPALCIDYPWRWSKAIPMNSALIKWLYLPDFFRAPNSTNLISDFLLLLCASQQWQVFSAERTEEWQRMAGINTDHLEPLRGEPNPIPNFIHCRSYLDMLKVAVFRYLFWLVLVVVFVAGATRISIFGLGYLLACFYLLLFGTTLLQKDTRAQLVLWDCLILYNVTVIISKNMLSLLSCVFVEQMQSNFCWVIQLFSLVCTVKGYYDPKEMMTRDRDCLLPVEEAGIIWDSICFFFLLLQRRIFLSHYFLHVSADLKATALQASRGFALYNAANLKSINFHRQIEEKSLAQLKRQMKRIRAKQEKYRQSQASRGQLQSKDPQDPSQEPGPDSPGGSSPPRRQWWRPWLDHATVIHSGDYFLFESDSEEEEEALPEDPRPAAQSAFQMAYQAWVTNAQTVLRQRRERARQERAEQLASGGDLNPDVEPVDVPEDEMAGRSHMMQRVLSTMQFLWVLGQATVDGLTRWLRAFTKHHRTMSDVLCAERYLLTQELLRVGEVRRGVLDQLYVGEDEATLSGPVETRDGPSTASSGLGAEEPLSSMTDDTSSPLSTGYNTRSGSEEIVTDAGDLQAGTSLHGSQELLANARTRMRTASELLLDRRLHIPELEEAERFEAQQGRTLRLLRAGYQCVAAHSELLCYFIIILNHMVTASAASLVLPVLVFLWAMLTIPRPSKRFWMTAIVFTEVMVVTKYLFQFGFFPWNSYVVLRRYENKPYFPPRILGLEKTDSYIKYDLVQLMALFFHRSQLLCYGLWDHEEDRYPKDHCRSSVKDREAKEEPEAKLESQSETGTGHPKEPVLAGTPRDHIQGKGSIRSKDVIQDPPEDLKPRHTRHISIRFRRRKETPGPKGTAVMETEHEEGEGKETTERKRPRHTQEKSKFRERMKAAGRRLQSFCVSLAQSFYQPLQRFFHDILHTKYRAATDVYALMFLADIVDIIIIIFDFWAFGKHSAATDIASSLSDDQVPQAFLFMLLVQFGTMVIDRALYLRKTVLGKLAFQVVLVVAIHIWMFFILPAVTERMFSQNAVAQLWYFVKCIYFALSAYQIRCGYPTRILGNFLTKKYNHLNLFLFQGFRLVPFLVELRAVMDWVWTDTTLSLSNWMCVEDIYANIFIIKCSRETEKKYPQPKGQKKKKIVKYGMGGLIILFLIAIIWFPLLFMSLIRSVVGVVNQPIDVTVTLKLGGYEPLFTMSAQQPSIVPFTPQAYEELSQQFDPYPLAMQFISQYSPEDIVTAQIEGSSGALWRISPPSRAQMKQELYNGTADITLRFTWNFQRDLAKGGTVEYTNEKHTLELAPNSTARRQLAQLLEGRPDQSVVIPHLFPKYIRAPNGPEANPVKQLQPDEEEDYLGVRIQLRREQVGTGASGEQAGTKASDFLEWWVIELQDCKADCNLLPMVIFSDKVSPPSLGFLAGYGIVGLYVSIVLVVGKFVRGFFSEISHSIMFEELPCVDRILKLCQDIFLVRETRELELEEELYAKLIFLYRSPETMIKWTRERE
T2 sequence (E2JF22 whole entry): as the sequence (E2JF22 whole entry G1994D) above, with D1994G counted along it

Mean normalise fluorescence (Figure 5e) (G1994D mPIEZO1; Yoda1 concentration 0.03 µM): 0.2099
Mean normalise fluorescence (Figure 5e) (G1994D mPIEZO1; Yoda1 concentration 0.1 µM): 0.1039
Mean normalise fluorescence (Figure 5e) (G1994D mPIEZO1; Yoda1 concentration 0.3 µM): 0.5452
Mean normalise fluorescence (Figure 5e) (G1994D mPIEZO1; Yoda1 concentration 1 µM): 1.026
Mean normalise fluorescence (Figure 5e) (G1994D mPIEZO1; Yoda1 concentration 3 µM): 1
Mean normalise fluorescence (Figure 5e) (G1994D mPIEZO1; Yoda1 concentration 10 µM): 1.103
SMILES: Clc1cccc(Cl)c1CSc1nnc(-c2cnccn2)s1 [Yoda1]
fluorescence (ΔFratio) ([1]; time 0 s): 0.00237
fluorescence (ΔFratio) ([1]; time 5 s): -0.00988
fluorescence (ΔFratio) ([1]; time 10 s): 0.01607
fluorescence (ΔFratio) ([1]; time 15 s): 0.00395
fluorescence (ΔFratio) ([1]; time 20 s): -3.91E-04
fluorescence (ΔFratio) ([1]; time 25 s): -0.01211
fluorescence (ΔFratio) ([1]; time 30 s): -0.08353
fluorescence (ΔFratio) ([1]; time 35 s): 0.00717
fluorescence (ΔFratio) ([1]; time 40 s): 0.03324
fluorescence (ΔFratio) ([1]; time 45 s): 0.05289
fluorescence (ΔFratio) ([1]; time 50 s): 0.03768
fluorescence (ΔFratio) ([1]; time 55 s): 0.03322
fluorescence (ΔFratio) ([1]; time 60 s): 0.03103
fluorescence (ΔFratio) ([1]; time 65 s): 0.02272
fluorescence (ΔFratio) ([1]; time 70 s): 0.00255
fluorescence (ΔFratio) ([1]; time 75 s): 0.00791
fluorescence (ΔFratio) ([1]; time 80 s): -0.00287
fluorescence (ΔFratio) ([1]; time 85 s): 0.01077
fluorescence (ΔFratio) ([1]; time 90 s): -0.01792
fluorescence (ΔFratio) ([1]; time 95 s): -0.01119
fluorescence (ΔFratio) ([1]; time 100 s): 0.01819
fluorescence (ΔFratio) ([1]; time 105 s): 8.16E-04
fluorescence (ΔFratio) ([1]; time 110 s): 0.00558
fluorescence (ΔFratio) ([1]; time 115 s): 0.00369
fluorescence (ΔFratio) ([1]; time 120 s): 7.66E-04
fluorescence (ΔFratio) ([1]; time 125 s): 0.00667
aqueous solubility limit [2]: ~2 µM (≈ 0.711 µg/mL)

more effective than Yoda1 under the hypotonic condition (WT mPIEZO1): about 25%
solubility kinetic [3]: 6.1 µM (≈ 2.42 µg/mL)
unbound to mouse plasma proteins [4]: 0.4%
SMILES: O=C(O)c1ccc(-c2cnc(SCc3c(Cl)cccc3Cl)s2)cc1 [Yoda2b, 4-(2-([(2,6-Dichlorophenyl)methyl]sulfanyl)-1,3-thiazol-5-yl)benzoic acid]
